Among the data in ChEMBL document CHEMBL2384963, “Diterpenoids from the twigs and leaves of Fokienia hodginsii” (J Nat Prod, 2013) are IC50 values, retold here.

pIC50: −log10 of the molar value.

Holding throughout (format): functional, cell-based
One test has as its system SW480. The experiment in a line: Cytotoxicity against human SW480 cells after 48 hrs by MTT assay. The conditions noted are these: SW480, 48 h.
The subject of another test is A549. In words: Cytotoxicity against human A549 cells after 48 hrs by MTT assay. Conditions: A549, 48 h. For orientation: Tetrazolium dyes change colour on reduction, which living cells bring about.
For another test, the system named is HL-60. The experiment in a line: Cytotoxicity against human HL60 cells after 48 hrs by MTT assay. Conditions: HL-60, 48 h.
The next test relates to MCF7. The experiment in a line: Cytotoxicity against human MCF7 cells after 48 hrs by MTT assay. Conditions: MCF7, 48 h.
The test system of another test is SMMC-7721. The experiment in a line: Cytotoxicity against human SMMC7721 cells after 48 hrs by MTT assay. The conditions noted are these: SMMC-7721, 48 h.

A word on the pIC50: it is the negative decadic logarithm of the IC50, by convention in mol/L. Lower therefore signals a high IC50.

In the case of `C=CC(=C)CC[C@@H]1[C@@]2(C)CCC[C@](C)(COC(=O)/C=C/c3ccc(O)cc3)[C@@H]2CC[C@@]1(C)O`, the pIC50 was 4.71 with SW480; 4.69 with A549; 4.93 in the test on HL-60; 4.78 in the test with MCF7; 4.81 in the test on SMMC-7721.
Consider `C=C1CC[C@@H]2[C@](C)(CCC[C@@]2(C)C(=O)O)[C@H]1CC/C(C)=C/COC(C)=O`, for which the pIC50 in the test with SW480, with A549, in the test on HL-60, in the test on MCF7 and in the test on SMMC-7721 was under 4.40 throughout.
As to `C=C[C@@](C)(O)CC[C@H]1C(=C)CC[C@@H]2[C@]1(C)CCC[C@]2(C)C(=O)O`, the pIC50 with SW480, with A549, in the test with HL-60, in the test with MCF7 and in the test on SMMC-7721 was under 4.40 in each case.
With `C=CC(=C)CC[C@@H]1[C@@]2(C)CCC[C@](C)(COC(=O)/C=C/c3ccc(O)c(OC)c3)[C@@H]2CC[C@@]1(C)O`, the pIC50 in the test on SW480 was 4.77; with A549 it was 4.78; in the test on HL-60, 4.85; in the test on MCF7, 4.87; in the test on SMMC-7721, 4.85.
For `C=CC(=C)CC[C@@H]1[C@@]2(C)CCC[C@](C)(COC(=O)/C=C\c3ccc(O)cc3)[C@@H]2CC[C@@]1(C)O`, the pIC50 in the test on SW480 was 4.87; with A549, 4.77; in the test with HL-60 it was 4.85; in the test on MCF7, 4.82; in the test on SMMC-7721 it was 4.79.
With `CC(C)c1cc2c(cc1O)[C@@]1(CO)CCCC(C)(C)[C@H]1CC2`, the pIC50 with SW480 is 4.82; with A549, 4.68; with HL-60, 4.81; in the test on MCF7 it was 4.82; with SMMC-7721 it was 4.82.
`C=C[C@]1(C)C=C2CC[C@H]3[C@](C)(CO)CCC[C@]3(C)[C@H]2[C@H](O)C1`: the pIC50 in the test on SW480, in the test on A549, with HL-60, in the test with MCF7 and in the test on SMMC-7721 was under 4.40 throughout.
On to `C=C[C@]1(C)C=C2CC[C@H]3[C@](C)(COC(C)=O)CCC[C@]3(C)[C@H]2[C@H](O)C1`, for which the pIC50 in the test on SW480, with A549, in the test with HL-60, with MCF7 and with SMMC-7721 was under 4.40 each time.
As for `C=C[C@]1(C)C=C2CC[C@H]3C(C)(C)[C@@H](O)CC[C@]3(C)[C@H]2[C@H](O)C1`, the pIC50 with SW480, with A549, in the test on HL-60, with MCF7 and in the test on SMMC-7721 was under 4.40 each time.
In the case of `C=C[C@]1(C)C=C2CC[C@H]3C(C)(C)[C@@H](O)CC[C@]3(C)[C@H]2[C@H](OC(C)=O)C1`, the pIC50 with SW480, in the test with A549, in the test on HL-60, with MCF7 and in the test with SMMC-7721 was under 4.40 each time.
As to `C=C[C@@]1(C)C=C[C@H]2C(=C1)[C@H](O)C[C@H]1[C@](C)(CO)CCC[C@]21C`, the pIC50 in the test on SW480, in the test with A549, in the test with HL-60, with MCF7 and in the test on SMMC-7721 was under 4.40 each time.
For the compound `C=CC(=C)[C@H](O)C[C@H]1C(=C)CC[C@@H]2[C@]1(C)CCC[C@]2(C)C(=O)O`, the pIC50 in the test with SW480, with A549, with HL-60, with MCF7 and with SMMC-7721 was under 4.40 throughout.
With `C=C[C@@]1(C)O[C@H]1C[C@H]1C(=C)CC[C@@H]2[C@]1(C)CCC[C@]2(C)C(=O)O`, the pIC50 in the test with SW480, in the test with A549, in the test on HL-60, with MCF7 and in the test with SMMC-7721 was under 4.40 in each case.
Turning to `C=C[C@]1(C)O[C@H]1C[C@H]1C(=C)CC[C@@H]2[C@]1(C)CCC[C@]2(C)C(=O)O`, the pIC50 in the test on SW480, in the test on A549, with HL-60, in the test on MCF7 and in the test on SMMC-7721 was under 4.40 each time.
As to `C=CC(=C)CC[C@@H]1[C@@]2(C)CCC[C@](C)(COC(=O)/C=C\c3ccc(O)c(OC)c3)[C@@H]2CC[C@@]1(C)O`, the negative logarithm of the IC50 (pIC50) was 4.75 in the test on SW480; 4.76 with A549; 5.04 with HL-60; 4.81 in the test with MCF7; 5.12 with SMMC-7721.
Consider `CC(C)C1=C[C@]2(O)CC[C@H]3C(C)(C)CCC[C@]3(O)CC2=CC1=O`, for which the pIC50 with SW480, with A549, in the test with HL-60, in the test on MCF7 and with SMMC-7721 was under 4.40 in each case.
On to `C=C[C@]1(C)C=C2CC[C@H]3C(C)(C)CCC[C@]3(C)[C@H]2[C@H](O)C1`, for which the pIC50 with SW480, in the test with A549, with HL-60, in the test with MCF7 and in the test on SMMC-7721 was under 4.40 each time.
As for `C=CC(=C)[C@@H](O)C[C@H]1C(=C)CC[C@@H]2[C@]1(C)CCC[C@]2(C)C(=O)O`, the pIC50 in the test with SW480, in the test with A549, in the test with HL-60, in the test with MCF7 and in the test with SMMC-7721 was under 4.40 throughout.
Regarding `C=C/C(C)=C/C[C@H]1C(=C)CC[C@@H]2[C@]1(C)CCC[C@]2(C)C=O`, the pIC50 in the test with SW480, with A549, in the test with HL-60, in the test on MCF7 and in the test with SMMC-7721 was under 4.40 throughout.
Take `C=C1CC[C@@H]2[C@](C)(CCC[C@]2(C)C(=O)O)[C@H]1C/C=C(\C)C=O`: the pIC50 in the test on SW480, in the test on A549, with HL-60, with MCF7 and in the test on SMMC-7721 was under 4.40 each time.
As to `C=C/C(C)=C/C[C@H]1C(=C)CC[C@@H]2[C@]1(C)CCC[C@]2(C)C(=O)O`, the pIC50 with SW480, in the test on A549, with HL-60, with MCF7 and with SMMC-7721 was under 4.40 each time.
Take `CC(C)c1cc2c(cc1O)[C@@]1(C)CCCC(C)(C)[C@@H]1CC2` [FERRUGINOL]: the pIC50 in the test with SW480, in the test with A549, with HL-60, with MCF7 and with SMMC-7721 was under 4.40 in each case.
For the compound `C=C1CC[C@@H]2[C@](C)(CCC[C@]2(C)C(=O)O)[C@H]1CC/C(C)=C/CO` [ISOCUPRESSIC ACID], the pIC50 in the test with SW480, in the test with A549, in the test on HL-60, in the test with MCF7 and in the test on SMMC-7721 was under 4.40 throughout.
For the compound `C=C1CC[C@@H]2[C@](C)(CCC[C@]2(C)C(=O)O)[C@H]1CCC1=CCOC1=O` [PINUSOLIDIC ACID], the pIC50 in the test on SW480, in the test with A549, in the test with HL-60, in the test on MCF7 and with SMMC-7721 was under 4.40 throughout.
For the compound `CC(C)c1cc2c(cc1O)[C@@]1(C=O)CCCC(C)(C)[C@@H]1CC2` [PISIFERAL], the pIC50 was 4.84 in the test with SW480; 4.68 in the test with A549; 4.85 with HL-60; 4.81 in the test with MCF7; 4.71 with SMMC-7721.
On the same counts, the results for `CC(C)c1cc2c(cc1O)[C@@]1(CO)CCCC(C)(C)[C@@H]1CC2` [PISIFEROL] are under 4.40, under 4.40, under 4.40, under 4.40 and under 4.40.
`C=C[C@]1(C)C=C2CC[C@H]3[C@](C)(CO)[C@@H](O)CC[C@]3(C)[C@H]2CC1` [SANDARACOPIMARADIENEDIOL]: the pIC50 with SW480, with A549, in the test on HL-60, with MCF7 and in the test on SMMC-7721 was under 4.40 throughout.
Turning to `C=C[C@]1(C)C=C2CC[C@@H]3[C@](C)(CCC[C@@]3(C)C(=O)O)[C@H]2CC1` [SANDARACOPIMARIC ACID], the pIC50 in the test on SW480, in the test on A549, with HL-60, with MCF7 and with SMMC-7721 was under 4.40 in each case.
